Experimental data published in patent US20030039673A1, “DISINFECTION BY PARTICLE-BOUND AND INS[…]” (priority 1997, published 2003).

Key:
[1] = Detergent binding to resin, foaming of supernatant; assay type: physicochemical; design: key: foaming presence (+); absence (−); details: 10 mM detergent solution incubated with resin beads
[2] = Detergent binding to resin, foaming of supernatant; assay type: physicochemical; design: key: foaming presence (+); absence (−); details: 10 mM detergent solution incubated with resin beads; remark: listed apart in the source
[3] = Detergent binding to resin, foaming of supernatant; assay type: physicochemical; design: key: foaming presence (+); absence (−); details: 10 mM detergent solution incubated with resin beads; remark: listed apart in the source
[4] = system: EMC virus; experiment: Viral end point assay of EMC-spiked plasma; assay type: cell-based
[5] = system: red blood cells (RBC)
[6] = system: viruses; details: even in the presence of plasma proteins; basis of copending application Ser. No. 08/785,984; cited from earlier work

Compound | foaming of supernatant as indicator of detergent presence, Calbiosorb [1] | foaming of supernatant as indicator of detergent presence, Purolite [2] | foaming of supernatant as indicator of detergent presence, Polystyrene [3] | virucidal effectiveness compared with Triton plus triclosan ([4]; 0.2% Triton alone) | hemolysis [5] | level effective at inactivating some viruses [6] | Titer ([4]; 100 mM triclosan in 2% aqueous Triton X-100, 5 mL added to 50 mL EMC-spiked plasma, 60 min room temperature)
C[C@H](CCC(=O)O)[C@H]1CC[C@H]2[C@@H]3[C@H](O)C[C@@H]4C[C@H](O)CC[C@]4(C)[C@H]3C[C@H](O)[C@]12C [Cholate, cholic acid] | − | − | + |  |  |  | 
benzalkonium chloride [BC] | − |  | + |  |  |  | 
CCCCCCCCCCCCOS(=O)(=O)[O-].[Na+] [SDS, sodium dodecylsulfate] | − | − | + |  |  |  | 
C[C@H](CCC(=O)O)[C@H]1CC[C@H]2[C@@H]3CC[C@@H]4C[C@H](O)CC[C@]4(C)[C@H]3C[C@H](O)[C@]12C [Deoxycholate, deoxycholic acid] | − | − | + |  |  |  | 
CCCCCCCCCCCCCC[N+](C)(C)C.[Br-] [TTAB, tetradecyltrimethylammonium bromide] | − |  | + |  |  |  | 
C[C@H](CCC(=O)NCCC[N+](C)(C)CCCS(=O)(=O)[O-])[C@H]1CC[C@H]2[C@@H]3[C@H](O)C[C@@H]4C[C@H](O)CC[C@]4(C)[C@H]3C[C@H](O)[C@]12C [CHAPS, 3-[(3-Chloramidopropyl)-dimethylammonio]-1-propanesulfanate] | − |  | + |  |  |  | 
C[C@H](CCC(=O)NCCC[N+](C)(C)CC(O)CS(=O)(=O)[O-])[C@H]1CC[C@H]2[C@@H]3[C@H](O)C[C@@H]4C[C@H](O)CC[C@]4(C)[C@H]3C[C@H](O)[C@]12C (stereo partly drawn) [CHAPSO, 3-[(3-Chloramidopropyl)-dimethylammonio]-2-hydroxyl 1-propanesulfanate] | − |  | + |  |  |  | 
Triton X-100 | − | + | + | not nearly effective as Triton plus triclosan | immediate hemolysis |  | 
CCCCCCCC(=O)O [Caprylate, caprylic acid] | − | − | + |  |  |  | 
CCCCCCCCOC(=O)CC(C(=O)OCCCCCCCC)S(=O)(=O)O (stereo not drawn) [DSS, dioctyl sulfosuccinate] | − | − | + |  |  |  | 
CCCCCCCCO[C@@H]1O[C@H](CO)[C@@H](O)[C@H](O)[C@H]1O [OG, n-octyl-B-D-glucopyranoside] | − | + | + |  |  | about 0.03% | 
Oc1cc(Cl)ccc1Oc1ccc(Cl)cc1Cl [Triclosan, triclosan] |  |  |  |  |  |  | 0
